Like-named read-outs stand apart in the source and are kept apart here.
Columns and labels:
human PBMCs = assay: Human PBMC TNF-α response to endotoxin (ELISA); type: cell-based; conditions: 0.1 μg/ml LPS 16 h, read-out: EC50 for the inhibition of the human PBMC TNF-α response to endotoxin, ave. ± S.D.
Method in brief: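 PBMCs at 2e6 cells/ml in RPMI 1640 with 10% charcoal-dextran-treated FBS were pre-treated 1 h at 37 °C with compound (4-point 1:5 dilution from 10 μM). Stimulation with 0.1 μg/ml E. coli 0111:B4 LPS for 16 h; TNF-α measured by ELISA (A450) in 25-fold diluted supernatant.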

AMPKa1 or AMPKa2 = assay: Probe-based (AX9989) kinase profiling in Jurkat lysate: AMPKa1 or AMPKa2; type: binding; conditions: for Kinase inhibition % at indicated screening concentration: AMPKa1 or AMPKa2: screening concentration 1.0 μM
Method in brief: (§1)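 Jurkat lysate (50 mM HEPES pH 7.5, 150 mM NaCl, 0.1% Triton X-100, 20 mM MnCl2) pre-incubated 15 min with compound at room temperature, then labeled with 5 μM acyl phosphate ATP probe AX9989. Tryptic probe-labeled peptides streptavidin-captured and quantified by LC/MS; percent inhibition from decreased fragment intensity versus untreated.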

TAO2 = biological target: T1, TAO2 (Homo sapiens, UniProt Q9UL54); assay: Probe-based (AX9989) kinase profiling in Jurkat lysate: TAO2; type: binding
T1 construct: screened for activity against several kinases in Jurkat cells; endogenous in cells; host or cells: Jurkat cell lysate
T1 sequence (Q9UL54 1-1235): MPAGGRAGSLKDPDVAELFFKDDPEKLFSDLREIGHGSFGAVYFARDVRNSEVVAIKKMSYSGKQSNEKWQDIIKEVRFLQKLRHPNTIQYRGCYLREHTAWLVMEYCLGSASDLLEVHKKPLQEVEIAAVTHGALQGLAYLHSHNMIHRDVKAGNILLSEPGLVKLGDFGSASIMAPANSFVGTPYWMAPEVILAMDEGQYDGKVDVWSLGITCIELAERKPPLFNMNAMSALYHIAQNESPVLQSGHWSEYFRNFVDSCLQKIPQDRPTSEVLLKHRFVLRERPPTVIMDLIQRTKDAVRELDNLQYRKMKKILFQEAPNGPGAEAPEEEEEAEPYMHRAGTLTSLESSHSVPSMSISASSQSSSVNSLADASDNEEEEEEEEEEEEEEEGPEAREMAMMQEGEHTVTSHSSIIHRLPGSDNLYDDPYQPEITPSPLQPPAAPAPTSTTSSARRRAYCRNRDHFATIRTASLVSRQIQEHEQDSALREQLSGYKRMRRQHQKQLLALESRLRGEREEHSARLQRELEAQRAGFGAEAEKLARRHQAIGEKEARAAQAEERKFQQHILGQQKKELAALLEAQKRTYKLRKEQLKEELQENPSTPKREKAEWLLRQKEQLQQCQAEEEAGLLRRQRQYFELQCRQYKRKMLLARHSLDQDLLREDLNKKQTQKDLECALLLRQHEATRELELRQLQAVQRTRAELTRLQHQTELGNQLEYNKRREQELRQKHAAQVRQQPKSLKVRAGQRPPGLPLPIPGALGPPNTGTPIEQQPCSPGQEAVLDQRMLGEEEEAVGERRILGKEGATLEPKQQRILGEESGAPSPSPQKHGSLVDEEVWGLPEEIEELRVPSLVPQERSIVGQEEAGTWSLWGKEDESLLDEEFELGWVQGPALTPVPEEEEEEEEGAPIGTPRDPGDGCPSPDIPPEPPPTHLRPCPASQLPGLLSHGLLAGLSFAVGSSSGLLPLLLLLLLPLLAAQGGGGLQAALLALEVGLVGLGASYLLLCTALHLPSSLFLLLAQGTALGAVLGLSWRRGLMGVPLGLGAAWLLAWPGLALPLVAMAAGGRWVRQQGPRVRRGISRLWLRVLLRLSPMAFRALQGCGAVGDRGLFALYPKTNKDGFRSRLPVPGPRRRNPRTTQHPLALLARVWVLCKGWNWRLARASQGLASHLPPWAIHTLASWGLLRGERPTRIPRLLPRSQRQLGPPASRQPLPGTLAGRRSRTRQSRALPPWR
Method in brief: as §1

AurA = biological target: T2, AurA (Homo sapiens, UniProt O14965); assay: Probe-based (AX9989) kinase profiling in Jurkat lysate: AurA; type: binding
T2 construct: screened for activity against several kinases in Jurkat cells; endogenous in cells; host or cells: Jurkat cell lysate
T2 sequence (O14965 1-403): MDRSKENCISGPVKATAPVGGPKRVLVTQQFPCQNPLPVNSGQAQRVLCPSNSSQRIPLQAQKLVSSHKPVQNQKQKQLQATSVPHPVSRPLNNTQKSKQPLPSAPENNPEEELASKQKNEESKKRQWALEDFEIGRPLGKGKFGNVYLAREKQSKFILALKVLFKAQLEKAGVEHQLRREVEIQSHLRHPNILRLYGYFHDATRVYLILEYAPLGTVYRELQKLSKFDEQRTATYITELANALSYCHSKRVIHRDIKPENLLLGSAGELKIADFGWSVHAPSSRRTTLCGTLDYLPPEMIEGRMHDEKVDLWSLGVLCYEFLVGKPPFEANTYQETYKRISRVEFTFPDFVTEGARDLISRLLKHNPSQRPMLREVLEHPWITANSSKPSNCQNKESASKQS
Method in brief: as §1

AurB or AurC = assay: Probe-based (AX9989) kinase profiling in Jurkat lysate: AurB or AurC; type: binding; conditions: for Kinase inhibition % at indicated screening concentration: AurB or AurC: screening concentration 1.0 μM
Method in brief: as §1

ACK = biological target: T3, ACK (Homo sapiens, UniProt Q07912); assay: Probe-based (AX9989) kinase profiling in Jurkat lysate: ACK; type: binding
T3 construct: screened for activity against several kinases in Jurkat cells; endogenous in cells; host or cells: Jurkat cell lysate
Method in brief: as §1

ABL or ARG = assay: Probe-based (AX9989) kinase profiling in Jurkat lysate: ABL or ARG; type: binding; conditions: for Kinase inhibition % at indicated screening concentration: ABL or ARG: screening concentration 1.0 μM
Method in brief: as §1

JAK1 = biological target: T4, JAK1 (Homo sapiens, UniProt P23458); assay: Probe-based (AX9989) kinase profiling in Jurkat lysate: JAK1; type: binding
T4 construct: screened for activity against several kinases in Jurkat cells; endogenous in cells; host or cells: Jurkat cell lysate
Method in brief: as §1

ERK5 = biological target: T5, ERK5 (Homo sapiens, UniProt Q13164); assay: Probe-based (AX9989 acyl phosphate ATP probe) kinase profiling in Jurkat lysate: ERK5; type: binding; conditions: for IC50: Jurkat lysate
T5 construct: screened for activity against several kinases in Jurkat cells; endogenous in cells; host or cells: Jurkat cell lysate
Method in brief: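 ERK5 IC50 values came from percent inhibition at the screening concentration, measured as loss of LC/MS signal of probe-labelled active-site peptides. Compound was added for 15 min at room temperature to Jurkat lysate (5 mg/ml, 20 mM MnCl2) before labelling with AX9989 ATP acyl phosphate probe at 5 μM.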

[1] = screening concentration 1.0 μM, read-out: Kinase inhibition % at indicated screening concentration: TAO2
[2] = screening concentration 1.0 μM, read-out: Kinase inhibition % at indicated screening concentration: AurA
[3] = screening concentration 1.0 μM, read-out: Kinase inhibition % at indicated screening concentration: ACK
[4] = screening concentration 1.0 μM, read-out: Kinase inhibition % at indicated screening concentration: JAK1
[5] = calculated from percent inhibition of AX9989 labeling and the screening concentration
[6] = screening concentration 1.0 μM, read-out: Kinase inhibition % at indicated screening concentration: ERK5
[7] = calculated from percent inhibition and screening concentration, AX9989 probe
[8] = screening concentration 1 μM, read-out: TAO2 Inhibition % at indicated screening concentration
[9] = screening concentration 1 μM, read-out: AurA Inhibition % at indicated screening concentration
[10] = screening concentration 1 μM, read-out: ACK Inhibition % at indicated screening concentration
[11] = screening concentration 1 μM, read-out: JAK1 Inhibition % at indicated screening concentration
[12] = screening concentration 1 μM, read-out: ERK5 Inhibition % at indicated screening concentration

T3 sequence (Q07912 whole entry): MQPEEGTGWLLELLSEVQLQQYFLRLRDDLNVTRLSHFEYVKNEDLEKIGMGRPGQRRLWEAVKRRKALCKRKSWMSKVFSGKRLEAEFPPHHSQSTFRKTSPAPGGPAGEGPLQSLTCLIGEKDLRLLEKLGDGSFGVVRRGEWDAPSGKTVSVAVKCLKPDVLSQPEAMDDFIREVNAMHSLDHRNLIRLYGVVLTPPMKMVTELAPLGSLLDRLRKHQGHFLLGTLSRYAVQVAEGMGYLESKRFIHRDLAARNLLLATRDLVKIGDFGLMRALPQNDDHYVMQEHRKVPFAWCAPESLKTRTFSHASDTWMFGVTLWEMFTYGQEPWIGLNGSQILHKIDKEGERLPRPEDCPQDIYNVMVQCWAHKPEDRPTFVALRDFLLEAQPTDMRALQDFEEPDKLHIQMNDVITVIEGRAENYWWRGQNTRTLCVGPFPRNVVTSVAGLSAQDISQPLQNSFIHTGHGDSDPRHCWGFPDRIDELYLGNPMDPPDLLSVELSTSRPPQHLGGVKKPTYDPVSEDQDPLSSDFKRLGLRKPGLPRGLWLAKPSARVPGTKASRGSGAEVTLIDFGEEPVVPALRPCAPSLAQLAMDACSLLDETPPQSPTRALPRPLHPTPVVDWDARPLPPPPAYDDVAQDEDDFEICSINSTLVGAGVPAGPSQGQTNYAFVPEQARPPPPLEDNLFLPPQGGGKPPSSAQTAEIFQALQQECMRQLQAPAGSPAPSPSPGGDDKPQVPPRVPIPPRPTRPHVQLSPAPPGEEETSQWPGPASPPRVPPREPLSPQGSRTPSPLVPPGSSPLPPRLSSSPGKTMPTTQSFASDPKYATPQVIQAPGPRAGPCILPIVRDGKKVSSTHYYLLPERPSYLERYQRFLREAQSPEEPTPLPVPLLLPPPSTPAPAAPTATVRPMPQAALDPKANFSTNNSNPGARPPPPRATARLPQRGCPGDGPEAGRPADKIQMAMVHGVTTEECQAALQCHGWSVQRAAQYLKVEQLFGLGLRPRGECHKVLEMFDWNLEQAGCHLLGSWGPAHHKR
T4 sequence (P23458 whole entry): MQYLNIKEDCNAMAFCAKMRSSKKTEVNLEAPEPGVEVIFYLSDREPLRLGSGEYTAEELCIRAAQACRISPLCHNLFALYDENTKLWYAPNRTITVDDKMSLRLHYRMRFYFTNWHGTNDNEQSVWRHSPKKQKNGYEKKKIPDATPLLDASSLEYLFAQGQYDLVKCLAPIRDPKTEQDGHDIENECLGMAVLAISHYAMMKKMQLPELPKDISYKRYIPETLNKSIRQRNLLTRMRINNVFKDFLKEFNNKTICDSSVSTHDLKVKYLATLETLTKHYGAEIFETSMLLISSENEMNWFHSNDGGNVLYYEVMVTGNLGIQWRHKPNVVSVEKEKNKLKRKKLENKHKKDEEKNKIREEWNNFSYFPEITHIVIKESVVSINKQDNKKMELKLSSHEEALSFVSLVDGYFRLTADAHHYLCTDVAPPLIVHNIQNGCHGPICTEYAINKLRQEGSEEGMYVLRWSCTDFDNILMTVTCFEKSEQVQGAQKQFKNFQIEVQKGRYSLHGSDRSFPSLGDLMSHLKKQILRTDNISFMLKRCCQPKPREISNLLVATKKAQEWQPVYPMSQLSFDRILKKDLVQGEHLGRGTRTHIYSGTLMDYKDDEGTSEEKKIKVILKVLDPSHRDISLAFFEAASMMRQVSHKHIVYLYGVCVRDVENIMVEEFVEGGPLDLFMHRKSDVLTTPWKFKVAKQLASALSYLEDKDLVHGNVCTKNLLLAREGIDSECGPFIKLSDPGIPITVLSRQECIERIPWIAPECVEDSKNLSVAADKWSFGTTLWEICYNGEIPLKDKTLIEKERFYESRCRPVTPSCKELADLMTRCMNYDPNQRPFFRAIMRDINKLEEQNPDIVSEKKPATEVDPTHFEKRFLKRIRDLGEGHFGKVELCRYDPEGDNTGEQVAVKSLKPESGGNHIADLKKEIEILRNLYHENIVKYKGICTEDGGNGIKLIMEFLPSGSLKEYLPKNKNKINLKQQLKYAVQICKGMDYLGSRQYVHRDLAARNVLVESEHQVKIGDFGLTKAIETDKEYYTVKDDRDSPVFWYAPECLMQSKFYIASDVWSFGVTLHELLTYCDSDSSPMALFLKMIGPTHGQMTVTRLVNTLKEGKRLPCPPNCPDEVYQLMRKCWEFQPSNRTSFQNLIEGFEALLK
T5 sequence (Q13164 whole entry): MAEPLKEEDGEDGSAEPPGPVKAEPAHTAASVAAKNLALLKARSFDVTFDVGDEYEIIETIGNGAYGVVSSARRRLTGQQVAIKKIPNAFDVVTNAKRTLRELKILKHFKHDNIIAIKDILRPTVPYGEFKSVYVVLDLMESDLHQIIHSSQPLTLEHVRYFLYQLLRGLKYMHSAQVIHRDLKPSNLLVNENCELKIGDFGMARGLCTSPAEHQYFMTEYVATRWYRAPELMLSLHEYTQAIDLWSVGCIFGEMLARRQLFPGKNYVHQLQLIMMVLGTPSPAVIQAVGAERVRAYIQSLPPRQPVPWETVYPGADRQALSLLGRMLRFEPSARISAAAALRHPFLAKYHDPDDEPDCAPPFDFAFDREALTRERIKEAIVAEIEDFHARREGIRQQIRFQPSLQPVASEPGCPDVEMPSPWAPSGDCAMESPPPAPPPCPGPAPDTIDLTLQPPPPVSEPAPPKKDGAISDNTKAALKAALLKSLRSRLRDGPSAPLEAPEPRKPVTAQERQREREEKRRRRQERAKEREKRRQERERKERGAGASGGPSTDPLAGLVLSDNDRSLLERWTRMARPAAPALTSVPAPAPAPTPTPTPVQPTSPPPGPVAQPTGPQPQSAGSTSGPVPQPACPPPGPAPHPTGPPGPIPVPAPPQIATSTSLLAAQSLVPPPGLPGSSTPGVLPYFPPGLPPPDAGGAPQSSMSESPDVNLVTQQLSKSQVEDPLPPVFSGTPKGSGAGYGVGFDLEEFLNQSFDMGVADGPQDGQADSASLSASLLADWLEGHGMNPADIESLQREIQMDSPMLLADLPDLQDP

Row | SMILES | EC50 (human PBMCs) [nM] | Kinase inhibition % at indicated screening concentration: AMPKa1 or AMPKa2 (AMPKa1 or AMPKa2) | inhibition at 1 µM (TAO2; [1]) [%] | inhibition at 1 µM (AurA; [2]) [%] | Kinase inhibition % at indicated screening concentration: AurB or AurC (AurB or AurC) | inhibition at 1 µM (ACK; [3]) [%] | Kinase inhibition % at indicated screening concentration: ABL or ARG (ABL or ARG) | inhibition at 1 µM (JAK1; [4]) [%] | IC50 (ERK5; [5]) [nM] | inhibition at 1 µM (ERK5; [6]) [%] | IC50 (ERK5; [7]) [nM] | AMPKa1 or AMPKa2 Inhibition % at indicated screening concentration (AMPKa1 or AMPKa2; screening concentration 1 μM) | inhibition at 1 µM (TAO2; [8]) [%] | inhibition at 1 µM (AurA; [9]) [%] | AurB or AurC Inhibition % at indicated screening concentration (AurB or AurC; screening concentration 1 μM) | inhibition at 1 µM (ACK; [10]) [%] | ABL or ARG Inhibition % at indicated screening concentration (ABL or ARG; screening concentration 1 μM) | inhibition at 1 µM (JAK1; [11]) [%] | inhibition at 1 µM (ERK5; [12]) [%] | further results
1 | COc1ccc(Nc2cc3c(cn2)N(C)C(=O)c2ccccc2N3C)c(C)c1 [Compound 41] | 7610 | E (E is ≦35%) | ≤ 35 | ≤ 35 | E (E is ≦35%) | ≤ 35 | E (E is ≦35%) | ≤ 35 | 101 to 500 | 75 to 90 |  |  |  |  |  |  |  |  |  | 
2 | CCOc1cc(C(=O)N2CCN(C3CCN(C)CC3)CC2)ccc1Nc1cc2c(cn1)N(C)C(=N)c1ccccc1N2C [Compound T80] | > 15000 |  |  |  |  |  |  |  |  |  | > 500 |  |  |  |  |  |  |  |  | AMPKa1 or AMPKa2 Inhibition % at indicated screening concentration (AMPKa1 or AMPKa2; screening concentration 10 μM): E (E is ≦35%); inhibition at 10 µM (TAO2; screening concentration 10 μM, read-out: TAO2 Inhibition % at indicated screening concentration): ≤ 35%; inhibition at 10 µM (AurA; screening concentration 10 μM, read-out: AurA Inhibition % at indicated screening concentration): ≤ 35%; AurB or AurC Inhibition % at indicated screening concentration (AurB or AurC; screening concentration 10 μM): E (E is ≦35%); inhibition at 10 µM (ACK; screening concentration 10 μM, read-out: ACK Inhibition % at indicated screening concentration): ≤ 35%; ABL or ARG Inhibition % at indicated screening concentration (ABL or ARG; screening concentration 10 μM): E (E is ≦35%); inhibition at 10 µM (JAK1; screening concentration 10 μM, read-out: JAK1 Inhibition % at indicated screening concentration): ≤ 35%; inhibition at 10 µM (ERK5; screening concentration 10 μM, read-out: ERK5 Inhibition % at indicated screening concentration): ≤ 35%
3 | Cc1c(Nc2cc3c(cn2)N(C)C(=O)c2ccccc2N3C)cnn1C [Compound 59] | 5840 | E (E is ≦35%) | ≤ 35 | ≤ 35 | E (E is ≦35%) | ≤ 35 | E (E is ≦35%) | ≤ 35 | 101 to 500 | 75 to 90 |  |  |  |  |  |  |  |  |  | 
4 | [2H]C([2H])([2H])N1C(=O)c2ccccc2N(C([2H])([2H])[2H])c2cc(Nc3ccc(C(=O)N4CCN(C(C)=O)CC4)cc3OCC)ncc21 [Compound T77] | 6330 |  |  |  |  |  |  |  |  |  | 50 to 100 | E (E is ≦35%) | ≤ 35 | ≤ 35 | E (E is ≦35%) | ≤ 35 | E (E is ≦35%) | ≤ 35 | > 90 | 
5 | CCOc1cc(C(=O)N[C@H]2CC[C@H](C#N)CC2)ccc1Nc1cc2c(cn1)N(C)C(=O)c1ccccc1N2C [Compound T59] | 720 |  |  |  |  |  |  |  |  |  | 101 to 500 | E (E is ≦35%) | ≤ 35 | ≤ 35 | E (E is ≦35%) | ≤ 35 | E (E is ≦35%) | ≤ 35 | 50 to 75 | 

From patent publication US20170008888A1 (KYORIN PHARMACEUTICAL CO., LTD., priority 2014, published 2017)
